# Experimental data as given in US8980912B2, “Cyclic amine compound and acaricide” (Nippon Soda Co., Ltd., priority 2010, dated 2015).
# System: Tetranychus urticae
# Assay: Efficacy test against Tetranychus urticae (adult mites on kidney bean plant, spray)
# Format: in vivo
# Details: emulsion diluted to 31 ppm, sprayed; organic phosphorous-resistant adult females; 3 days after spraying
# Experimental: Efficacy Test Against Tetranychus urticae
# Seventeen organic phosphorous-resistant adult female Tetranychus urticae mites were inoculated onto the first leaves of a kidney bean plant planted in a No. 3 pot 7 to 10 days after germination. Next, an emulsion was prepared having the formula indicated in the aforementioned Preparation example 2. […] The kidney bean plant was then placed in a temperature-controlled room at a temperature of 25° C. and humidity of 65%. The adult insect mortality rates were investigated 3 days after spraying. The test was repeated twice.
smiles,measurement,value
COC(C)COc1cc(C(F)(F)F)ccc1OC1CC2CCCC(C1)N2Oc1ccc(C(F)(F)F)cn1 (stereo not shown) [H-81],insect mortality rate,≥ 80%
